From US3974140A, “Ureidoacetamido-penicillins” (Bayer Aktiengesellschaft, priority 1970, dated 1976) come the findings set out here.

For one data set, the system named is E. coli 14. In words: MIC, liquid medium test tube series dilution test. The conditions noted are these: E. coli 14, 24 hours, 37°C. The data set is classed as cell-based. In outline:
(§1)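 Read-out: visual turbidity after 24 h at 37°C. The MIC, in units/ml, corresponds to the non-turbid tube in a liquid-medium test tube dilution series prepared in complete nutrient medium.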

For a further data set, the system named is E. coli 183/58. In words: MIC, liquid medium test tube series dilution test. The class given is cell-based. The conditions noted are these: E. coli 183/58, 24 hours, 37°C. The method, boiled down:
as §1

A further data set deals with E. coli A 261. In words: MIC, liquid medium test tube series dilution test. The data set is classed as cell-based. The settings on record: E. coli A 261, 24 hours, 37°C. In outline:
as §1

For a further data set, the system named is E. coli C 165. The experiment in a line: MIC, liquid medium test tube series dilution test. The data set is classed as cell-based. The conditions noted are these: E. coli C 165, 24 hours, 37°C. In outline: as §1
The subject of the next data set is Klebsiella 63. The experiment in a line: MIC, liquid medium test tube series dilution test. The data set is classed as cell-based. The settings on record: Klebsiella 63, 24 hours, 37°C. In outline:
as §1

The subject of data set [1] is Streptoc. faec. ATCC 9790. The experiment in a line: MIC, liquid medium test tube series dilution test. The class given is cell-based. The settings on record: Strep. faec. (Enterococcus) ATCC 9790, 24 hours, 37°C. In outline: as §1
Another data set concerns Proteus vulg. 1017. In words: MIC, liquid medium test tube series dilution test. The data set is classed as cell-based, Proteus vulgaris. The conditions noted are these: Proteus vulg. 1017, 24 hours, 37°C. The method, boiled down:
as §1

In the next data set the test system is Proteus vulg. 3400. The experiment in a line: MIC, liquid medium test tube series dilution test. The class given is cell-based, Proteus vulgaris. The settings on record: Proteus vulg. 3400, 24 hours, 37°C. In outline:
as §1

The next data set concerns Psdm. aerug. Bonn. The experiment in a line: MIC, liquid medium test tube series dilution test. The class given is cell-based, Pseudomonas aerug. The conditions noted are these: 24 hours, 37°C. The method, boiled down:
as §1

The subject of a further data set is Psdm. aerug. Walter. In words: MIC, liquid medium test tube series dilution test. The class given is cell-based, Pseudomonas aerug. The conditions noted are these: 24 hours, 37°C. The method, boiled down:
as §1

Data set [2] relates to Staph. aureus 133. In words: MIC, liquid medium test tube series dilution test. The data set is classed as cell-based, Staphylococcus aureus. The settings on record: Staph. aureus 133, 24 hours, 37°C. In outline:
as §1

In a further data set the test system is Staph. aureus 1777 E. In words: MIC, liquid medium test tube series dilution test. The data set is classed as cell-based, Staphylococcus aureus. The settings on record: 24 hours, 37°C. In outline:
as §1

Data set [3] deals with Staph. aureus 133. In words: Surviving mice after intraperitoneal infection and subcutaneous therapy. The settings on record: 2 × 200 units/mouse s.c. The class given is in vivo, white mice, CF1 strain. As for the experimental part:
The experiments on animals (see Table 3) were carried out with white mice of the CF1 strain. The infection took place intraperitoneally with the particular bacterium indicated.

Data set [4] can be described thus: Acute toxicity (LD50), intravenous injection into the vein of the tail. The class given is in vivo. The settings on record: for LD50: mouse, in vivo, iv. An excerpt:
Acute toxicity (LD50) in white mice after
intravenous injection into the vein of the […]

The test system of another data set is Klebsiella K 10. In words: MIC, liquid medium test tube series dilution test. The data set is classed as cell-based. The settings on record: Klebsiella K 10, 24 hours, 37°C. The method, boiled down: as §1
Data set [5] in a line: Serum level after subcutaneous administration, measured from microbiological activity against Proteus vulgaris 1017. The class given is in vivo, white mice. An excerpt: Serum level after subcutaneous ("s.c.") administration to white mice, in units/ml of serum, measured from the microbiological activity against Proteus vulgaris 1017 (ampicillin-resistant).
Setting [6] is: i.v. into tail vein, white mice.

As to `CN(C(=O)N[C@@H](C(=O)N[C@@H]1C(=O)N2[C@@H]1SC(C)(C)[C@@H]2C(=O)O)c1ccccc1)C(=O)C1CC=CCC1` (single isomer, unassigned) [Example 65, Sodium D(-)-α-(3-(1,2,5,6)-tetrahydrobenzoyl-3-methyl-ureido)benzylpenicillin], the MIC is less than 0.78 units/ml against E. coli 14; 1.56 units/ml against E. coli 183/58; 400 units/ml against E. coli A 261; 3.12 units/ml in the data set on E. coli C 165; 12.5 units/ml with Klebsiella 63; 50 units/ml in data set [1]. Also, the MIC with Proteus vulg. 1017 is given as 3.12 units/ml; against Proteus vulg. 3400, 6.25 units/ml; with Psdm. aerug. Bonn it was 12.5 units/ml; in the data set with Psdm. aerug. Walter it was 12.5 units/ml; in the data set with Staph. aureus 133 [2], less than 0.78 units/ml; with Staph. aureus 1777 E, 50 units/ml. In addition, the “Number of surviving mice” value in the data set on Staph. aureus 133 [3] (1 day) is reported as 90%; with Staph. aureus 133 [3] (2 days), 80%; with Staph. aureus 133 [3] (3 days) it was 70%; in the data set with Staph. aureus 133 [3] (5 days), 70%.

`Cc1onc(-c2c(Cl)cccc2Cl)c1C(=O)N[C@@H]1C(=O)N2[C@@H]1SC(C)(C)[C@@H]2C(=O)O` [Dicycloxacillin, reference compound]: the “Acute toxicity (LD50)” value in data set [4] (setting [6]) is recorded as 900 mg/kg.

Regarding `CN(C(=O)CCCl)C(=O)N[C@@H](C(=O)N[C@@H]1C(=O)N2[C@@H]1SC(C)(C)[C@@H]2C(=O)O)c1ccccc1` [Example 64, Sodium D(-)-α-(3-β -chloropropionyl-3-methyl-ureido)-benzylpenicillin], the MIC with E. coli 14 is 3.12 units/ml; against E. coli 183/58, 25 units/ml; against E. coli A 261 it was more than 400 units/ml; with E. coli C 165, 25 units/ml; in the data set with Klebsiella 63, 100 units/ml; with Klebsiella K 10, 100 units/ml. Also, the MIC in data set [1] came out at 100 units/ml; in the data set with Proteus vulg. 1017, 25 units/ml; against Proteus vulg. 3400 it was 100 units/ml; against Psdm. aerug. Bonn, 25 units/ml; with Psdm. aerug. Walter, 50 units/ml; against Staph. aureus 133 [2], 1.56 units/ml. This molecule also had an MIC in the data set with Staph. aureus 1777 E of 50 units/ml. Moreover, the Serum level is given as 50 units/ml of serum in data set [5] (50.000 units s.c., 10 mins.); 10 units/ml of serum in data set [5] (50.000 units s.c., 20 mins.); 42 units/ml of serum in [5] (150.000 units s.c., 15 mins.); 26 units/ml of serum in data set [5] (150.000 units s.c., 30 mins.); < 10 units/ml of serum in data set [5] (150.000 units s.c., 60 mins.).

The term LD50 denotes the dose at which mortality reaches 50%. High values mean a less toxic substance, low ones a more toxic substance. As to `CN(C(=O)N[C@@H](C(=O)N[C@@H]1C(=O)N2[C@@H]1SC(C)(C)[C@@H]2C(=O)O)c1ccccc1)C(=O)c1cccs1` [Example 75, Sodium D(-)-α-(3-thenoyl-(2)-3-methyl-ureido)-benzylpenicillin], the MIC is recorded as less than 0.8 units/ml against E. coli 14 and 0.8 units/ml in the data set on Staph. aureus 133 [2]. The same molecule registered an LD50 in data set [4] of 1500 mg/kg.

As for `C=CCN(C(C)=O)C(=O)N[C@@H](C(=O)N[C@@H]1C(=O)N2[C@@H]1SC(C)(C)[C@@H]2C(=O)O)c1ccccc1` [Example 86, Sodium D(-)-α-(3-acetyl-3-allyl-ureido)-benzylpenicillin], the MIC is 12.5 units/ml with E. coli 14; 50 units/ml with E. coli 183/58; more than 400 units/ml against E. coli A 261; 25 units/ml against E. coli C 165; 50 units/ml in the data set on Klebsiella 63; 100 units/ml in the data set on Klebsiella K 10. For the same molecule, the MIC is 100 units/ml in data set [1]; 50 units/ml against Proteus vulg. 1017; 50 units/ml in the data set with Proteus vulg. 3400; 25 units/ml in the data set on Psdm. aerug. Bonn; 50 units/ml against Psdm. aerug. Walter; less than 0.78 units/ml in the data set with Staph. aureus 133 [2]. For the same molecule, in data set [4] (setting [6]), the LD50 was more than 3000 mg/kg.

Regarding `CN(C)C(=O)N(C)C(=O)N[C@@H](C(=O)N[C@@H]1C(=O)N2[C@@H]1SC(C)(C)[C@@H]2C(=O)O)c1ccccc1` [Example 94, Sodium D(-)-α-(3-dimethylaminocarbonyl-3-methyl-ureido)benzylpenicillin], the MIC in the data set on E. coli 14 is reported as 12.5 units/ml; in the data set with E. coli 183/58, 100 units/ml; against E. coli A 261, more than 400 units/ml; against E. coli C 165, 50 units/ml; in the data set with Klebsiella 63, 200 units/ml; in the data set with Klebsiella K 10, 200 units/ml. For the same molecule, the MIC in data set [1] is reported as 200 units/ml; with Proteus vulg. 1017 it was 100 units/ml; in the data set with Proteus vulg. 3400, 50 units/ml; in the data set with Psdm. aerug. Bonn, 100 units/ml; in the data set on Psdm. aerug. Walter, 100 units/ml; against Staph. aureus 133 [2] it was 3.12 units/ml. This molecule came in with an LD50 in data set [4] of 4000 mg/kg.

`CCN(C(=O)N[C@@H](C(=O)N[C@@H]1C(=O)N2[C@@H]1SC(C)(C)[C@@H]2C(=O)O)c1ccccc1)C(=O)c1ccccc1Cl` [Example 138, Sodium D(-)-α-(3-o-chlorobenzoyl-3-ethyl-ureido)-benzylpenicillin]: the MIC was 6.25 units/ml in the data set with E. coli 14; 12.5 units/ml in the data set with E. coli 183/58; 200 units/ml in the data set with E. coli A 261; 25 units/ml in the data set on E. coli C 165; 50 units/ml against Klebsiella 63; 50 units/ml against Klebsiella K 10. Besides, the MIC in [1] is given as 50 units/ml; with Proteus vulg. 1017 it was 25 units/ml; against Proteus vulg. 3400 it was 100 units/ml; in the data set on Psdm. aerug. Bonn, 25 units/ml; against Psdm. aerug. Walter, 100 units/ml; against Staph. aureus 133 [2] it was less than 0.8 units/ml. In the data set on Staph. aureus 1777 E, the MIC stood at 12.5 units/ml.

In the case of `CC1(C)S[C@@H]2[C@H](NC(=O)[C@H](NC(=O)N3CCNC3=O)c3ccccc3)C(=O)N2[C@H]1C(=O)O` [Example 144 A, D(-)-α-(Imidazolidin-2-on-1-yl-carbonylamino)-benzyl-penicillin], the MIC against E. coli 14 (listed as 144) came out at 1.56 units/ml; against E. coli 183/58 (listed as 144), 50 units/ml; in the data set on E. coli A 261 (listed as 144), 400 units/ml; in the data set with E. coli C 165 (listed as 144) it was 6.25 units/ml; against Klebsiella 63 (listed as 144), 50 units/ml; against Klebsiella K 10, 50 units/ml. Moreover, the MIC was 25 units/ml in data set [1] (listed as 144); 12 units/ml in the data set on Proteus vulg. 1017 (listed as 144); 25 units/ml with Proteus vulg. 3400 (listed as 144); 6.25 units/ml in the data set on Psdm. aerug. Bonn (listed as 144); 12.5 units/ml in the data set on Psdm. aerug. Walter (listed as 144); less than 0.8 units/ml against Staph. aureus 133 [2] (listed as 144). This molecule also yielded an MIC against Staph. aureus 1777 E (listed as 144) of 200 units/ml.

On to `CC1(C)S[C@@H]2[C@H](NC(=O)[C@H](NC(=O)N3CCNC3=S)c3ccccc3)C(=O)N2[C@H]1C(=O)O` [Example 147 A], for which the MIC against E. coli 14 was 12.5 units/ml; in the data set with E. coli 183/58 it was 100 units/ml; with E. coli A 261, more than 400 units/ml; against E. coli C 165 it was 50 units/ml; in the data set with Klebsiella 63, 100 units/ml; against Klebsiella K 10, 200 units/ml. The MIC in [1] came out at 50 units/ml; with Proteus vulg. 1017 it was 50 units/ml; against Proteus vulg. 3400 it was 50 units/ml; against Proteus vulg. 3400 (listed as 147 A) it was 200 units/ml; with Psdm. aerug. Bonn it was 25 units/ml; against Psdm. aerug. Walter, 200 units/ml. The MIC in the data set with Staph. aureus 133 [2] was less than 0.8 units/ml; in the data set with Staph. aureus 1777 E it was 100 units/ml.
